The text below walks through data of patent US20090186915A1, “Compositions and methods for treatment of glioblastoma, gliosarcoma, NSCLC, and head and neck cancer” (Unibioscreen S. A., priority 2006, published 2009).

Test [1] concerns glioma Hs683 and U373 cells. The experiment in a line: Cell cycle kinetics by flow cytometry, glioma cells. It counts as cell-based, human. The procedure: The cell cycle kinetics of glioma Hs683 (ATCC code HTB-138) and U373 (ATCC code HTB-17) cells left untreated or incubated with UNBS5162 as indicated were determined by flow cytometry analysis of propidium iodide (PI) nuclear staining, using previously detailed methodology (Mijatovic et al. Neoplasia 2006, 2008). Each sample was evaluated in triplicate. Flow cytometry was undertaken using an Epics XL.MCL flow cytometer and the F ACScan/CellQuest software system (Becton Dickinson, Miami, Fla., USA).
(In general: Flow cytometry measures light scatter and fluorescence of single cells or particles in a stream.)

In a further test the test system is P-glycoprotein. The test can be described thus: P-gp ATPase activity (P-gp Drug interaction Assay Kit). It counts as biochemical. The procedure: In order to test drug interaction with P-glucoprotein (herein-after referred as P-gp) we used an assay based on the study of modulation of ATPase activity from enriched P-gp membrane vesicle preparation (the following kit has been used: P-gp Drug interaction Assay Kit commercially available from SPI BIO France). P-gp ATPase activity was measured by a spectrophotometric method based on monitoring of ADP formation in the vesicle suspension medium. The basal ATPase activity was defined as the activity determined in the absence of any added drug. […]

The subject of a further test is U-373 MG. The experiment in a line: Cell migration (phase-contrast microscopy). The format is cell-based. The conditions noted are these: Homo sapiens, U373 MG, 22 h, read-out: Maximum effects (cell migration); for Emax at 0.1 µM: at 10^−7 M. The method, then:
Cells of different cancer lines, i.e. U-373 MG (Glioma cancer) and A549 (Lung cancer) were seeded on culture flask 48 hours before the migration experiment. On the test day, cells were treated with or without the compound of example 2 in closed Falcon dishes containing a buffered medium at a controlled temperature (37.0±0.1° C.) for 12 or 22 hours, as noted in the right column of table 3. The compound of example 2 was used at three non-cytotoxic concentrations (10^−6 M, 10^−7M, 10^−8 M). Migration of the cells was observed by means of a CCD-camera mounted on a phase-contrast microscope. Statistical analysis of the migration, with the non-parametric Mann-Whitney test, was established for 25% and 50% of the most motile cells and for the entire cell population.

In the next test the test system is BFU-E. The experiment in a line: HALO hematotoxicity assay, human BFU-E. The format is cell-based. The conditions noted are these: 7 days culture, iATP. The procedure: (§1) Investigation of the hematotoxic potential of UNBS5162 was undertaken by HemoGenix (Colorado Springs, Colo.). The effects of UNBS5162 on stem and progenitor cell populations from murine and human bone marrow were assessed using HALO (Hematopoietic/Hematotoxicity Assay through Luminescence Output) technology. Stem and hematopoietic progenitor cell populations were isolated from mouse and human bone marrow samples, plated at a concentration of 1.0×10^4 cells/well and cultured for 5 and 7 days, respectively, in the presence of growth factors and increasing concentrations of UNBS5162 ranging from 0.5 nM to 50 μM. The proliferative or growth potential of cell populations was determined from intracellular ATP (iATP) concentrations and a luciferin/luciferase bioluminescence signal detection system. All samples were assayed in eight replicates. The results are presented as estimated inhibitory concentration (IC) values.

A further test deals with DU-145. The test can be described thus: Autophagy: acidic vesicular organelles, acridine orange flow cytometry, DU-145. Conditions: red fluorescence, up to 10 μM. It counts as cell-based, human. The procedure: The cytoplasm and nucleus fluoresce green in acridine orange-stained cells, and the acidic compartments fluoresce red. The intensity of the red fluorescence is proportional to the degree of acidity and the volume of acidic vesicular organelles, including autophagic vacuoles. To quantify the development of acidic vesicular organelles, the cells were stained with acridine orange for 15 minutes and removed from the plate with trypsinization. Cells were then analyzed by flow cytometry. Each sample was evaluated in triplicate.

The subject of a further test is Mk-CFC. The experiment in a line: HALO hematotoxicity assay, mouse Mk-CFC. The conditions noted are these: 5 days culture, iATP. It counts as cell-based. The procedure: as §1
Another test deals with CFC-GEMM. The experiment in a line: HALO hematotoxicity assay, human CFC-GEMM. It counts as cell-based. The conditions noted are these: 7 days culture, iATP. The method, then: as §1
The subject of the next test is E2F1. The experiment in a line: E2F1 expression (Western blot), DU-145. The conditions noted are these: 10 μM. The format is cell-based, human. A general note: In western blotting, separated proteins are transferred to a membrane and probed.

Each structure is given as a SMILES string. pIC50: −log10 of the molar value. Where two headings read alike, the source gives them in different places.

The term pIC50 denotes the negative decadic logarithm of the IC50, by convention in mol/L. The low end stands for a large IC50, the high end for a small IC50. A word on the IC90: it is the concentration needed for an effect of 90%. For orientation: IC75 means the concentration needed for an effect of 75%. A lower IC75 goes with greater potency. As for `CN(C)CCN1C(=O)c2cccc3cc(NC(N)=O)cc(c23)C1=O` [UNBS5162, N-{2-[2-(dimethylamino)ethyl]-1,3-dioxo-2,3-dihydro-1H-benzo[de]isoquinolin-5-yl}urea], the “cell cycle kinetics, G2 block” value in test [1] (Hs683 and U373, 10 μM for 72 h) is “markedly blocked both Hs683 and U373 cells in their G2 cell cycle phase”. For the same compound, the cell cycle kinetics result in test [1] (glioma cells, 1 μM) is listed as “did not significantly modify glioma cell cycle kinetics”; in test [1] (glioma cells, chronic 1 μM for five days) it was “did not notably modify glioma cell cycle kinetics”. Besides, the “cell death on chronic treatment” value in test [1] (glioma cells, chronic 10 μM for five days) is listed as “induced the death of all assayed cells before the end of experiment”. Moreover, the “modulation of Pgp ATPase activity” value in the test on P-glycoprotein (100 μM (data not shown)) was “do not affect Pgp ATPase activity”. Also, the “modulation of basal P-gp ATPase activity” value in the test with P-glycoprotein (2, 10, and 50 μM) is “does not affect ATPase activity”. Further, the figures for the Emax at 0.1 µM with U-373 MG (22 hours on the 25% of the most motile cells) and with U-373 MG (22 hours on the 50% of the most motile cells) were -29% and -24%, respectively. Further, the Emax in the test on U-373 MG (22 hours on the 100% of cells, at the 10^−7 M) was -20%. Besides, the pIC50 in the test with BFU-E (168 h) was 5.44; in the test on Mk-CFC (120 h), 5.23; with CFC-GEMM (168 h) it was 5.59. For the same compound, the IC90 in the test with BFU-E (168 h) came to 17.6 µM; in the test with Mk-CFC (120 h), 9.61 µM; with CFC-GEMM (168 h) it was 12.8 µM. The concentration for an effect of 75% (IC75) with BFU-E worked out at 8.16 µM; in the test with Mk-CFC, 7.53 µM; in the test on CFC-GEMM it was 5.67 µM. Further, the “pro-autophagic effects (acidic vesicular organelles)” value in the test with DU-145 is “had a proautophagic effect”; in the test with DU-145 (listed as example 2), “pro-autophagic effects”. Besides, the E2F1 expression entry in the test with E2F1 was “a decrease but not the complete disappearance of Rb protein and E2F1 expression”.
